This passage reports IC50 results from US9765074B2, “Inhibitors of the renal outer medullary potassium channel” (Merck Sharp & Dohme Corp., priority 2013, dated 2017).

For the test, the target named is T1, hROMK (hKir1.1) (Homo sapiens, UniProt P48048).
T1 construct: expressed in transfected cells
T1 sequence (P48048 1-391): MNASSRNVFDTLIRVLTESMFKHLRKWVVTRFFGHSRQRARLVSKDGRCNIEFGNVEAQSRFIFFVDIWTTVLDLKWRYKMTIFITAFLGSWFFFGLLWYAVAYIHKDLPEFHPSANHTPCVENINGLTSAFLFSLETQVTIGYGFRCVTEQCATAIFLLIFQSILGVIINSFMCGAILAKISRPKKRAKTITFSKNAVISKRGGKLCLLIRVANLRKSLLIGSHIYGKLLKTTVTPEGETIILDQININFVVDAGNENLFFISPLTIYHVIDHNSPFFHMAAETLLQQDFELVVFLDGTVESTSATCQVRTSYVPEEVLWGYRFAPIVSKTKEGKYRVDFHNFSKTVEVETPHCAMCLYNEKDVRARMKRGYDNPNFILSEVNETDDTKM
Description: Thallium Flux Assay (ROMK channel functional thallium flux, FLIPR-Tetra). The test is classed as cell-based. The following applies: HEK293 cells stably expressing hROMK (hKir1.1); 30 min compound incubation. The gist of the method:
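Thallium flux read by FluxOR fluorescence ([…]) for ~10 min after adding 3 mM Tl+/0.3 mM K+ final. Stable HEK-hKir1.1 cells were dye-loaded 90 min, exposed to compound 30 min at room temperature in ouabain/probenecid buffer; IC50 relative to a 3 μM control inhibitor.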

For orientation: IC50 means the point on the concentration scale where inhibition reaches its midpoint. A higher IC50 goes with weaker potency. As to `CC1(C)CC2(CCN(C[C@H](O)c3cnc(-n4cnnn4)cn3)CC2)C(=O)N1C1=CC(=O)OC1` [Example 164, 8-{(2S)-2-hydroxy-2-[5-(1H-tetrazol-1-yl)pyrazin-2-yl]ethyl}-3,3-dimethyl-1-oxo-2-(5-oxo-2,5-dihydrofuran-3-yl)-2-aza-8-azoniaspiro[4.5]decane], the midpoint of inhibition, the IC50, lay at 40 nM.
In the case of `CC1=CN(C2=C(C)C(=O)OC2)C(=O)C12CCN(C[C@H](O)c1ccc(-n3cnnn3)nn1)CC2` [Example 166, 8-{(2S)-2-hydroxy-2-[6-(1H-tetrazol-1-yl)pyridazin-3-yl]ethyl}-4-methyl-2-(4-methyl-5-oxo-2,5-dihydrofuran-3-yl)-1-oxo-2-aza-8-azoniaspiro[4.5]dec-3-ene] it was 100 nM.
Turning to `O=C1C=C(N2C(=O)C3(CCN(C[C@H](O)c4cnc(-n5cnnn5)cn4)CC3)CC23CC3)CO1` [Example 167, 8-{(2S)-2-hydroxy-2-[5-(1H-tetrazol-1-yl)pyrazin-2-yl]ethyl}-12-(5-oxo-2,5-dihydrofuran-3-yl)-8,12-diazadispiro[2.1.5.2]dodecan-11-one], half-maximal inhibition (IC50) required 10 nM.
The same measure for `CC1=CC2(CCN(C[C@H](O)c3ccc(-n4cnnn4)nc3)CC2)C(=O)N1C1=CC(=O)OC1` [Example 174, 8-{(2R)-2-hydroxy-2-[6-(1H-tetrazol-1-yl)pyridin-3-yl]ethyl}-3-methyl-2-(5-oxo-2,5-dihydrofuran-3-yl)-2,8-diazaspiro[4.5]dec-3-en-1-one]: 20 nM; for `CC1=CN(C2=C(C)C(=O)OC2)C(=O)C12CCN(C[C@H](O)c1ccc(-n3cnnn3)nc1)CC2` [Example 175, 8-{(2R)-2-hydroxy-2-[6-(1H-tetrazol-1-yl)pyridin-3-yl]ethyl}-4-methyl-2-(4-methyl-5-oxo-2,5-dihydrofuran-3-yl)-1-oxo-2-aza-8-azoniaspiro[4.5]dec-3-ene]: 40 nM.
In turn, `CC1=C(N2CCC3(CC4COCC(C3)N4C[C@H](O)c3ccc(-n4cnnn4)nc3)C2=O)COC1=O` (stereo partly drawn) [Example 180, 9-{(2R)-2-hydroxy-2-[6-(1H-tetrazol-1-yl)pyridin-3-yl]ethyl}-1′-(4-methyl-5-oxo-2,5-dihydrofuran-3-yl)-2′H-spiro[7-oxa-9-azabicyclo[3.3.1]nonane-3,3′-pyrrolidin]-2′-one] displayed an IC50 of 40 nM.
The compound `CC1=C(N2CCC3(CC4COCC(C3)N4C[C@H](O)c3cnc(-n4cnnn4)cn3)C2=O)COC1=O` (stereo partly drawn) [Example 181, 9-{(2S)-2-hydroxy-2-[5-(1H-tetrazol-1-yl)pyrazin-2-yl]ethyl}-1′-(4-methyl-5-oxo-2,5-dihydrofuran-3-yl)-2′H-spiro[7-oxa-9-azabicyclo[3.3.1]nonane-3,3′-pyrrolidin]-2′-one] showed an IC50 of 150 nM.
In the case of `COCC1=C(N2CCC3(CCN(C[C@H](O)c4ccc(-n5cnnn5)nc4)CC3)C2=O)COC1=O` [Example 182, 8-{(2R)-2-hydroxy-2-[6-(1H-tetrazol-1-yl)pyridin-3-yl]ethyl}-2-[4-(methoxymethyl)-5-oxo-2,5-dihydrofuran-3-yl]-2,8-diazaspiro[4.5]decan-1-one] it was 50 nM.
`CC1=CC2(CCN(C[C@H](O)c3cnc(-n4cnnn4)cn3)CC2)C(=O)N1C1=CC(=O)OC1` [Example 187, 8-{(2S)-2-hydroxy-2-[5-(1H-tetrazol-1-yl)pyrazin-2-yl]ethyl}-3-methyl-2-(5-oxo-2,5-dihydrofuran-3-yl)-2,8-diazaspiro[4.5]dec-3-en-1-one] registered a half-maximal inhibitory concentration (IC50) of 100 nM.
The same measure for `CC1=CC2(CCN(C[C@H](O)c3ccc(-n4cnnn4)nn3)CC2)C(=O)N1C1=CC(=O)OC1` [Example 188, 8-{(2S)-2-hydroxy-2-[6-(1H-tetrazol-1-yl)pyridazin-3-yl]ethyl}-3-methyl-2-(5-oxo-2,5-dihydrofuran-3-yl)-2,8-diazaspiro[4.5]dec-3-en-1-one]: 50 nM.
In the case of `CC1(C)CC2(CCN(C[C@H](O)c3ccc(-n4cnnn4)nn3)CC2)C(=O)N1C1=CC(=O)OC1` [Example 189, 8-{(2S)-2-hydroxy-2-[6-(1H-tetrazol-1-yl)pyridazin-3-yl]ethyl}-3,3-dimethyl-1-oxo-2-(5-oxo-2,5-dihydrofuran-3-yl)-2-aza-8-azoniaspiro[4.5]decane], it took 50 nM to reach half-maximal inhibition (IC50).
Regarding `CC1(C)CC2(CCN(C[C@@H](O)c3ccc(-n4cnnn4)nn3)CC2)C(=O)N1C1=CC(=O)OC1` [Example 190, 8-{(2R)-2-hydroxy-2-[6-(1H-tetrazol-1-yl)pyridazin-3-yl]ethyl}-3,3-dimethyl-1-oxo-2-(5-oxo-2,5-dihydrofuran-3-yl)-2-aza-8-azoniaspiro[4.5]decane], the midpoint of inhibition, the IC50, lay at 50 nM.
Compound `COCC1=C(N2CCC3(CCN(C[C@H](O)c4ccc(-n5cnnn5)nn4)CC3)C2=O)COC1=O` [Example 191, 8-{(2S)-2-hydroxy-2-[6-(1H-tetrazol-1-yl)pyridazin-3-yl]ethyl}-2-[4-(methoxymethyl)-5-oxo-2,5-dihydrofuran-3-yl]-2,8-diazaspiro[4.5]decan-1-one] yielded an IC50 of 70 nM.
`COCC1=C(N2CCC3(CCN(C[C@H](O)c4cnc(-n5cnnn5)cn4)CC3)C2=O)COC1=O` [Example 200, 8-{(2S)-2-hydroxy-2-[5-(1H-tetrazol-1-yl)pyrazin-2-yl]ethyl}-2-[4-(methoxymethyl)-5-oxo-2,5-dihydrofuran-3-yl]-2,8-diazaspiro[4.5]decan-1-one]: the IC50 came to 80 nM.
Take `O=C1C=C(N2C=CC3(CCN(C[C@H](O)c4ccc(-n5cnnn5)nn4)CC3)C2=O)CO1` [Example 201, 8-{(2S)-2-hydroxy-2-[6-(1H-tetrazol-1-yl)pyridazin-3-yl]ethyl}-1-oxo-2-(5-oxo-2,5-dihydrofuran-3-yl)-2-aza-8-azoniaspiro[4.5]dec-3-ene]: the IC50 was determined as 120 nM.
In turn, `CC1=C(N2CCC3(CCN(CCc4ccc(-n5cnnn5)nn4)CC3)C2=O)COC1=O` [Example 232, 8-(2-(6-(1H-Tetrazol-1-yl)pyridazin-3-yl)ethyl)-2-(4-methyl-5-oxo-2,5-dihydrofuran-3-yl)-2,8-diazaspiro[4.5]decan-1-one] came in with a 50% inhibitory concentration (IC50) of 10 nM.
As to `CC1=C(N2CCC3(CCN(CCc4ccc(-n5cnnn5)nc4)CC3)C2=O)COC1=O` [Example 233], the midpoint of inhibition, the IC50, lay at 10 nM.
`CC1=C(N2CCC3(CCN(CCc4cnc(-n5cnnn5)cn4)CC3)C2=O)COC1=O` [Example 234, 2-(4-methyl-5-oxo-2,5-dihydrofuran-3-yl)-1-oxo-8-{2-[5-(1H-tetrazol-1-yl)pyrazin-2-yl]ethyl}-2-aza-8-azoniaspiro[4.5]decane]: inhibition was half-maximal at 10 nM (IC50).
In the case of `CC1=C(N2CCC3(CC4CCC(C3)N4CCc3ccc(-n4cnnn4)nn3)C2=O)COC1=O` [Example 235, (1S,5S)-1′-(4-methyl-5-oxo-2,5-dihydrofuran-3-yl)-2′-oxo-8-{2-[6-(1H-tetrazol-1-yl)pyridazin-3-yl]ethyl}spiro[8-azoniabicyclo[3.2.1]octane-3,3′-pyrrolidine]] it was 10 nM; in that of `CC1=C(N2CCC3(CCN(CCc4nnc(-n5cnnn5)cc4C)CC3)C2=O)COC1=O` [Example 236, 2-(4-methyl-5-oxo-2,5-dihydrofuran-3-yl)-8-{2-[4-methyl-6-(1H-tetrazol-1-yl)pyridazin-3-yl]ethyl}-1-oxo-2-aza-8-azoniaspiro[4.5]decane], 4 nM; in that of `CC1=C(N2CCC3(CCN(CCc4cc(C)c(-n5cnnn5)nn4)CC3)C2=O)COC1=O` [Example 237, 2-(4-methyl-5-oxo-2,5-dihydrofuran-3-yl)-8-{2-[5-methyl-6-(1H-tetrazol-1-yl)pyridazin-3-yl]ethyl}-1-oxo-2-aza-8-azoniaspiro[4.5]decane], 20 nM.
The same measure for `CC1=C(N2CCC3(CCN(CCc4ccc(-n5cnnn5)cn4)CC3)C2=O)COC1=O` [Example 238, 2-(4-methyl-5-oxo-2,5-dihydrofuran-3-yl)-1-oxo-8-{2-[5-(1H-tetrazol-1-yl)pyridin-2-yl]ethyl}-2-aza-8-azoniaspiro[4.5]decane]: 10 nM; for `CC1=C(N2CCC3(CC4COCC(C3)N4CCc3ccc(-n4cnnn4)nn3)C2=O)COC1=O` [Example 239, (1R,5S,9r)-1′-(4-methyl-5-oxo-2,5-(dihydrofuran-3-yl)-2′-oxo-9-{2-[6-(1H-tetrazol-1-yl)pyridazin-3-yl]ethyl}spiro[7-oxa-9-azoniabicyclo[3.3.1]nonane-3,3′-pyrrolidine]]: 320 nM.
`C[C@H]1CC2(CCN(CCc3cnc(-n4cnnn4)cn3)CC2)C(=O)N1C1=CC(=O)OC1` [Example 246, 3(S)-methyl-1-oxo-2-(5-oxo-2,5-dihydrofuran-3-yl)-8-{2-[5-(1H-tetrazol-1-yl)pyrazin-2-yl]ethyl}-2-aza-8-azoniaspiro[4.5]decane]: the IC50 was 20 nM.
As for `CC1=C(N2C=CC3(CCN(CCc4ccc(-n5cnnn5)nn4)CC3)C2=O)COC1=O` [Example 247, 2-(4-methyl-5-oxo-2,5-dihydrofuran-3-yl)-1-oxo-8-{2-[6-(1H-tetrazol-1-yl)pyridazin-3-yl]ethyl}-2-aza-8-azoniaspiro[4.5]dec-3-ene], the IC50 worked out at 20 nM.
In the case of `CC1=C(N2C=CC3(CCN(CCc4nnc(-n5cnnn5)cc4C)CC3)C2=O)COC1=O` [Example 248, 2-(4-methyl-5-oxo-2,5-dihydrofuran-3-yl)-8-{2-[4-methyl-6-(1H-tetrazol-1-yl)pyridazin-3-yl]ethyl}-1-oxo-2-aza-8-azoniaspiro[4.5]dec-3-ene] it was 20 nM.
